Experimental data from US9139577B2, “Sulfoximine substituted quinazolines for pharmaceutical compositions” (Boehringer Ingelheim International GmbH, priority 2013, dated 2015).

Legend:
MNK2a = MNK2a (Homo sapiens (Human), UniProt Q9HBH9); test: MNK2a in vitro kinase assay (Assay 2), ADP-Glo; assay type: biochemical; conditions: read-out: MNK2 IC50
MNK1 = MNK1 (Homo sapiens (Human), UniProt Q9BUB5); test: MNK1 in vitro kinase assay (Assay 3), Z'-LYTE; assay type: biochemical; conditions: for inhibition at 1 µM: compound concentration of 1 μM, read-out: MNK1 % INH
Text: C. MNK1 In vitro Kinase Assay (Assay 3)
MNK1 Data can be obtained from the MNK1 Z′-LYTE® assay. The MNK1 Z′-LYTE® screening protocol and assay conditions are also described on www.invitrogen.com.
The assay is described as follows:
The Z′-LYTE® biochemical assay employs a fluorescence-based, coupled-enzyme format and is based on the differential sensitivity of phosphorylated and non-phosphorylated peptides to proteolytic cleavage. The peptide substrate is labeled with two fluorophores—one at each end—that make up a FRET pair.
In the primary reaction, the kinase transfers the gamma-phosphate of ATP to a single tyrosine, serine or threonine residue in a synthetic FRET-peptide. In the secondary reaction, a site-specific protease recognizes and cleaves non-phosphorylated FRET-peptides. Phosphorylation of FRET-peptides suppresses cleavage by the Development Reagent. Cleavage disrupts FRET between the donor (i.e., coumarin) and acceptor (i.e., fluorescein) fluorophores on the FRET-peptide, whereas uncleaved, phosphorylated FRET-peptides maintain FRET. A ratiometric method, which calculates the ratio (the Emission Ratio) of donor emission to acceptor emission after excitation of the donor fluorophore at 400 nm, is used to quantitate reaction progress, as shown in the equation below.
ASSAY SETUP: The inhibition of kinase activity of MNK1a was assessed using pre-activated GST-MNK1a. The 2×MKNK1 (MNK1) mixture is prepared in 50 mM HEPES pH 7.5, 0.01% BRIJ-35, 10 mM MgCl2, 4 mM MnCl2, 1 mM EGTA, 2 mM DTT.
The Test Compounds are screened in 1% DMSO (final) in the well.
All Peptide/Kinase Mixtures are diluted to a 2× working concentration in the MNK1 Kinase Buffer.
All ATP Solutions are diluted to a 4× working concentration in Kinase Buffer (50 mM HEPES pH 7.5, 0.01% BRIJ-35, 10 mM MgCl2, 1 mM EGTA).
Development Reagent Solution:
The Development Reagent is diluted in Development Buffer
1. 2.5 μL—4× Test Compound
2. 5 μL—2× Peptide/Kinase Mixture
5. 60-minute Kinase Reaction incubation at room temperature
6. 5 μl—Development Reagent Solution
8. 60-minute Development Reaction incubation at room temperature
9. Read on fluorescence plate reader and analyze the data
The following equations are used for each set of data points: […]
Correction for Background Fluorescence: FlSample-FlTCFl Ctl
% Phosphorylation (% Phos): 1−((Emission Ratio×F100%)−C100%)/((C0%−C100%)+[Emission Ratio×(F100%−F0%)])*100%
% Inhibition: 1−(% PhosSample/% Phos0% Inhibition Ctl)*100
Fl=Fluorescence Intensity
C100%=Average Coumarin emission signal of the 100% Phos. Control
C0%=Average Coumarin emission signal of the 0% Phos. Control
F100%=Average Fluorescein emission signal of the 100% Phos. Control
F0%=Average Fluorescein emission signal of the 0% Phos. Control
SelectScreen® Kinase Profiling Service uses XLfit from IDBS.

Chain of MNK1 (Q9BUB5 other isoform, or with tags, fused parts or gaps): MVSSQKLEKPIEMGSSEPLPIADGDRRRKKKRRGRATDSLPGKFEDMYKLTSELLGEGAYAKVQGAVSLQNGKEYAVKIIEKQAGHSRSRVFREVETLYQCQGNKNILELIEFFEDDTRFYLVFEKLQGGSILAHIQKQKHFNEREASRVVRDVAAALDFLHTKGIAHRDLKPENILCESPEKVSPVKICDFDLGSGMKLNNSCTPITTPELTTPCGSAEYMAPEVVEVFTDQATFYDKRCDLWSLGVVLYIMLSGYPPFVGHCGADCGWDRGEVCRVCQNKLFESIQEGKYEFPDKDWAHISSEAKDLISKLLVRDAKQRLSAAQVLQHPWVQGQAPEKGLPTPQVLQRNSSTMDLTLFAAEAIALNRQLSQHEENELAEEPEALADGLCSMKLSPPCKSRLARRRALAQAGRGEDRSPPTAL
Chain of MNK2a (Q9HBH9 whole entry): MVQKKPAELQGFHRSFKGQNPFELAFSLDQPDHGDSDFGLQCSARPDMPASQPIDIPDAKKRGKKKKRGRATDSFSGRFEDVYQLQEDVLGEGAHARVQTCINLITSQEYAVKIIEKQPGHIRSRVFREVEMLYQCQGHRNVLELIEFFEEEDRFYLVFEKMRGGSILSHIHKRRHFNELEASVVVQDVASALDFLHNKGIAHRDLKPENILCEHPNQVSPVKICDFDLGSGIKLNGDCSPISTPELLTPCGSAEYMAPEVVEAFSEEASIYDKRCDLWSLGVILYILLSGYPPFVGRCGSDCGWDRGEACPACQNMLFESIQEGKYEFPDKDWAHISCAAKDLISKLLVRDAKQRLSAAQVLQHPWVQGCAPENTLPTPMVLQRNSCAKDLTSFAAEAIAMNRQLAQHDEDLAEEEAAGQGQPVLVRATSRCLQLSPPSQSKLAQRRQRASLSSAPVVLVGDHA

## Cc1cc(N=S(C)(C)=O)cc2ncnc(Nc3ccc(Cl)cc3O[C@H](C)C(=O)N[C@@H](C)C(F)(F)F)c12 [Example 4.088]
MNK2a
  IC50: 2 nM
MNK1
  IC50: 36 nM
  inhibition at 1 µM: 99%

## Cc1cc(COc2cc(F)ccc2Nc2ncnc3cc(N=S(C)(C)=O)cc(C)c23)no1 [Example 3.009]
MNK2a
  IC50: 7 nM
MNK1
  inhibition at 1 µM: 95%

## C[C@H](NC(=O)[C@@H](C)Oc1cc(F)ccc1Nc1ncnc2cc(N=S(C)(C)=O)cc(F)c12)C(F)(F)F [Example 4.118]
MNK2a
  IC50: 3 nM
MNK1
  IC50: 21 nM
  inhibition at 1 µM: 99%

## Cc1cc(N=S2(=O)CCC2)cc2ncnc(Nc3ccc(F)cc3O[C@H](C)C(F)(F)F)c12 [Example 2.006]
MNK2a
  IC50: 2 nM
MNK1
  IC50: 71 nM

## Cc1cc(N=S(C)(C)=O)cc2ncnc(Nc3ccc(F)cc3OC(C)c3nccs3)c12 (stereo not shown) [Example 3.035]
MNK2a
  IC50: 37 nM
MNK1
  inhibition at 1 µM: 89%

## COCCNC(=O)[C@@H](C)Oc1cc(F)ccc1Nc1ncnc2cc(N=S(C)(C)=O)cc(C)c12 [Example 4.035]
MNK2a
  IC50: 66 nM
MNK1
  inhibition at 1 µM: 87%

## Cc1cc(N=S(C)(C)=O)cc2ncnc(Nc3ccc(F)cc3O[C@H](C)C(=O)N[C@H]3CCOC3)c12 [Example 4.045]
MNK2a
  IC50: 3 nM
MNK1
  inhibition at 1 µM: 99%

## Cc1cc(N=S(C)(C)=O)cc2ncnc(Nc3ccc(F)cc3OC(C)c3ncco3)c12 (stereo not shown) [Example 3.002]
MNK2a
  IC50: 8 nM
MNK1
  inhibition at 1 µM: 80%

## Cc1cc([C@@H](C)Oc2cc(F)ccc2Nc2ncnc3cc(N=S4(=O)CCCC4)cc(C)c23)on1 [Example 2.012]
MNK2a
  IC50: 28 nM
MNK1
  inhibition at 1 µM: 102%

## Cc1cc(N=S(C)(C)=O)cc2ncnc(Nc3ccc(F)cc3O[C@H](C)C(=O)N3CCN(C)CC3)c12 [Example 4.056]
MNK2a
  IC50: 25 nM
MNK1
  inhibition at 1 µM: 74%

## Cc1cc(N=S(C)(C)=O)cc2ncnc(Nc3ccc(F)cc3OC(C)C)c12 [Example 2.011]
MNK2a
  IC50: 2 nM
MNK1
  inhibition at 1 µM: 94%

## Cc1cc(N=S2(=O)CCCC2)cc2ncnc(Nc3ccc(F)cc3O[C@H](C)C(=O)N3CCCCC3)c12 [Example 4.067]
MNK2a
  IC50: 3 nM
MNK1
  inhibition at 1 µM: 97%

## Cc1cc(N=S(C)(C)=O)cc2ncnc(Nc3ccc(F)cc3O[C@@H](C)CNS(C)(=O)=O)c12 [Example 5.001]
MNK2a
  IC50: 1 nM
MNK1
  inhibition at 1 µM: 97%

## Cc1cc(N=S(C)(C)=O)cc2ncnc(Nc3ccc(C(N)=O)cc3OC(C)C)c12 [Example 1.014]
MNK2a
  IC50: 5 nM
MNK1
  inhibition at 1 µM: 97%

## CCC(C)NC(=O)[C@@H](C)Oc1cc(F)ccc1Nc1ncnc2cc(N=S3(=O)CCCC3)cc(C)c12 (stereo partly shown) [Example 4.050]
MNK2a
  IC50: 1 nM
MNK1
  inhibition at 1 µM: 100%

## Cc1cc(N=S(C)(C)=O)cc2ncnc(Nc3ccc(F)cc3OCc3ccon3)c12 [Example 3.039]
MNK2a
  IC50: 1 nM
MNK1
  IC50: 77 nM

## Cc1cc(N=S(C)(C)=O)cc2ncnc(Nc3ccc(F)cc3OC[C@@H]3CCC(=O)N3)c12 [Example 3.043]
MNK2a
  IC50: 5 nM
MNK1
  inhibition at 1 µM: 82%

## Cc1cc(N=S2(=O)CCCC2)cc2ncnc(Nc3cccnc3OCC3CCOC3)c12 (stereo not shown) [Example 2.005]
MNK2a
  IC50: 1 nM
MNK1
  inhibition at 1 µM: 96%

## Cc1cc(N=S2(=O)CCC2)cc2ncnc(Nc3ccc(F)cc3O[C@H](C)C(=O)N[C@@H](C)C(F)(F)F)c12 [Example 4.104]
MNK2a
  IC50: 1 nM
MNK1
  inhibition at 1 µM: 100%

## Cc1cc(N=S2(=O)CCCC2)cc2ncnc(Nc3ccc(F)cc3O[C@H](C)C(=O)N(C)CCO)c12 [Example 4.028]
MNK2a
  IC50: 4 nM
MNK1
  inhibition at 1 µM: 86%

## C#CCNC(=O)[C@@H](C)Oc1cc(F)ccc1Nc1ncnc2cc(N=S3(=O)CCCC3)cc(C)c12 [Example 4.027]
MNK2a
  IC50: 1 nM
MNK1
  inhibition at 1 µM: 99%

## COCC(C)Oc1cc(F)ccc1Nc1ncnc2cc(N=S(C)(C)=O)cc(C)c12 (stereo not shown) [Example 3.050]
MNK2a
  IC50: 32 nM
MNK1
  inhibition at 1 µM: 87%

## Cc1cc([C@@H](C)Oc2cc(F)ccc2Nc2ncnc3cc(N=S4(=O)CCCC4)cc(Cl)c23)on1 [Example 2.014]
MNK2a
  IC50: 2 nM
MNK1
  inhibition at 1 µM: 99%

## Cc1cc(N=S(C)(C)=O)cc2ncnc(Nc3ccc(F)cc3OCC3CCCCO3)c12 (stereo not shown) [Example 3.006]
MNK2a
  IC50: 1 nM
MNK1
  inhibition at 1 µM: 70%

## Cc1cc(N=S2(=O)CCCC2)cc2ncnc(Nc3ccc(F)cc3OC(C)C#N)c12 (stereo not shown) [Example 7.008]
MNK2a
  IC50: 3 nM
MNK1
  inhibition at 1 µM: 99%

## Cc1cc(N=S2(=O)CCCC2)cc2ncnc(Nc3ccc(F)cc3O[C@H](C)C(=O)N(C)C(C)C)c12 [Example 4.003]
MNK2a
  IC50: 2 nM
MNK1
  inhibition at 1 µM: 96%

## Cc1cc(N=S(C)(C)=O)cc2ncnc(Nc3ccc(F)cc3O[C@@H](C)CNC(=O)C(F)(F)F)c12 [Example 5.004]
MNK2a
  IC50: 2 nM
MNK1
  IC50: 66 nM

## Cc1cc(N=S(C)(C)=O)cc2ncnc(Nc3ccc(F)cc3O[C@H](C)C(=O)NCCO)c12 [Example 4.029]
MNK2a
  IC50: 3 nM
MNK1
  inhibition at 1 µM: 99%

## Cc1cc([C@@H](C)Oc2ncccc2Nc2ncnc3cc(N=S(C)(C)=O)cc(C)c23)on1 [Example 2.018]
MNK2a
  IC50: 1 nM
MNK1
  IC50: 34 nM

## Cc1cc(N=S(C)(C)=O)cc2ncnc(Nc3ccc(F)cc3OC(C)C(C)(C)O)c12 (stereo not shown) [Example 2.003]
MNK2a
  IC50: 13 nM
MNK1
  inhibition at 1 µM: 76%

## CC(=O)N1CCS(=O)(=Nc2cc(C)c3c(Nc4ccc(F)cc4O[C@H](C)c4cc(C)no4)ncnc3c2)CC1 [Example 5.005]
MNK2a
  IC50: 2 nM
MNK1
  inhibition at 1 µM: 95%

## CCNC(=O)N1CCS(=O)(=Nc2cc(C)c3c(Nc4ccc(F)cc4O[C@H](C)c4cc(C)no4)ncnc3c2)CC1 [Example 5.008]
MNK2a
  IC50: 2 nM
MNK1
  IC50: 39 nM

## CCOC(=O)[C@@H](C)Oc1cc(F)ccc1Nc1ncnc2cc(N=S(C)(C)=O)cc(C)c12 [Example 3.022]
MNK2a
  IC50: 2 nM
MNK1
  inhibition at 1 µM: 98%

## Cc1cc(N=S(C)(C)=O)cc2ncnc(Nc3ccc(F)cc3OCC3CCOCC3)c12 [Example 3.045]
MNK2a
  IC50: 10 nM
MNK1
  inhibition at 1 µM: 78%

## Cc1cc(N=S(C)(C)=O)cc2ncnc(Nc3ccc(F)cc3OC(CF)CF)c12 [Example 3.001]
MNK2a
  IC50: 2 nM
MNK1
  IC50: 60 nM

## Cc1cc(N=S2(=O)CCCC2)cc2ncnc(Nc3ccc(F)cc3O[C@H](C)C(=O)NCCO)c12 [Example 4.072]
MNK2a
  IC50: 3 nM
MNK1
  inhibition at 1 µM: 98%

## Cc1cc(N=S(C)(C)=O)cc2ncnc(Nc3ccc(F)cc3O[C@H](C)C(=O)N(C)C3CCCC3)c12 [Example 4.053]
MNK2a
  IC50: 16 nM
MNK1
  inhibition at 1 µM: 80%

## C#CCNC(=O)[C@@H](C)Oc1cc(F)ccc1Nc1ncnc2cc(N=S(C)(C)=O)cc(C)c12 [Example 4.018]
MNK2a
  IC50: 4 nM
MNK1
  inhibition at 1 µM: 99%

## Cc1cc(N=S(C)(C)=O)cc2ncnc(Nc3ccc(F)cc3OCC3CCOC3)c12 (stereo not shown) [Example 3.048]
MNK2a
  IC50: 11 nM
MNK1
  inhibition at 1 µM: 88%

## CCN(C)C(=O)[C@@H](C)Oc1cc(F)ccc1Nc1ncnc2cc(N=S(C)(C)=O)cc(C)c12 [Example 4.068]
MNK2a
  IC50: 4 nM
MNK1
  inhibition at 1 µM: 86%

## Cc1cc(N=S(C)(C)=O)cc2ncnc(Nc3ccc(F)cc3O[C@H](C)CNS(=O)(=O)C(F)(F)F)c12 [Example 5.011]
MNK2a
  IC50: 99 nM
MNK1
  inhibition at 1 µM: 27%

## Cc1cc([C@@H](C)Oc2ncccc2Nc2ncnc3cc(N=S4(=O)CCCC4)cc(C)c23)on1 [Example 2.009]
MNK2a
  IC50: 1 nM
MNK1
  IC50: 49 nM

## Cc1cc(N=S2(=O)CCCC2)cc2ncnc(Nc3ccc(F)cc3O[C@H](C)C(=O)N3CCC(=O)CC3)c12 [Example 4.054]
MNK2a
  IC50: 9 nM
MNK1
  inhibition at 1 µM: 95%
